Patent US8252572B2, “Use of islet glucose-6-phosphatase related protein as a diagnostic tool and therapeutic target for autoimmune diabetes” (priority 2003, dated 2012)

Legend:
NY8.3 CD8 T-cell clone = details: cited from earlier work
[1] = system: CD8 positive cells from the whole pancreas of NOD mice; assay: MHC class I tetramer binding to pancreatic mononuclear cells (FACS); format: cell-based, NOD mouse
Source text: Cells were isolated from collagenase digested mouse pancreas by gradient centrifugation and subject to 3 color FACS analysis using antibodies to CD45, CD8 and PE-streptavidin conjugated tetramers carrying peptides derived from IGRP. The gated (R1) population were 95% CD45 positive and composed of 12.5% CD8 cells.
MHC class I tetramers were generated using the NIH tetramer facility. These were loaded with a series of peptides including the native mouse IGRP peptide (VYLKTNVFL (SEQ ID NO.: 6); peptide C, FIG. 4) corresponding to the NRP-V7 mimeotope (KYNKANVFL (SEQ ID NO.: 7)) that stimulates the NY8.3 CD8 T-cell clone. A procedure was developed for the isolation of mononuclear cells from the whole pancreas of NOD mice yielding approximately 0.5-1×10^6 CD45 positive cells (lymphocytes) per mouse (12-16 wk females) for tetramer binding assays (FIG. 4). The lymphocyte population contained 10-15% CD8 positive cells of which 8% bound the native peptide tetramer. These assays confirm the remarkable finding that a major proportion of the CD8 cells in the NOD pancreas target one specific IGRP epitope. The procedure developed here represents a technical advance on previous tetramer studies of activated NRP reactive T-cell in NOD mice which required up to 40 animals for a single experiment and amplification of islet-derived T-cells for 7-9 days in the presence of IL-2.

[2] = system: mixed lymphocyte preparations of pre-diabetic 12 week old female NOD mice; assay: T-cell proliferative responses to recombinant antigens (3H thymidine); format: cell-based, NOD mouse; details: for T-cell proliferative response (in words): recombinant antigens as β-galactosidase fusion proteins, NOD lymphocytes
Description: Lymphocytes prepared from pancreatic draining lymph nodes were mixed with splenocytes from the same animal and incubated for 3 days (500×10^3 cells) in Click's medium with […] NOD mouse serum 50 μM mercaptoethanol and the indicated recombinant antigens that were generated as fusion proteins with β-galactosidase in the pUEX vector. Cultures were pulsed for 16 h with ^3H thymidine prior to harvest.
T-cell proliferative responses to recombinant IGRP (3-100 μg/ml) were observed from mixed lymphocyte preparations of pre-diabetic 12 week old female NOD mice (SImax=10).

## KYNKANVFL (SEQ ID NO.: 7) (artificial Mus sp.) [NRP-V7, mimeotope that stimulates the NY8.3 CD8 T-cell clone]
NY8.3 CD8 T-cell clone
  stimulation of T-cell clone (in words): stimulates

## VYLKTNVFL (SEQ ID NO.: 6) (listed as Mus sp.) [peptide C, native mouse IGRP peptide, cognate peptide of the NY8.3 clone]
[1]; K^d tetramer loaded with peptide, pancreatic lymphocytes of 12-16 wk female NOD mice
  proportion of CD8 positive cells that bound the tetramer: 8%
[1]; PE-streptavidin conjugated tetramers carrying peptides derived from IGRP, 3 color FACS, FIG. 4
  tetramer staining of pancreatic CD8 cells (in words): significant proportion bound

## β-galactosidase: the fusion partner, used as control antigen [reference compound]
[2]
  T-cell proliferative response (in words): minimal response

B1: G6Pase: equivalent β-galactosidase fusion construct with liver glucose-6-phosphatase (protein, UniProt P35575 1-357, looked up)
Glucose-6-phosphatase …: MEEGMNVLHDFGIQSTHYLQVNYQDSQDWFILVSVIADLRNAFYVLFPIWFHLQEAVGIKLLWVAVIGDWLNLVFKWILFGQRPYWWVLDTDYYSNTSVPLIKQFPVTCETGPGSPSGHAMGTAGVYYVMVTSTLSIFQGKIKPTYRFRCLNVILWLGFWAVQLNVCLSRIYLAAHFPHQVVAGVLSGIAVAETFSHIHSIYNASLKKYFLITFFLFSFAIGFYLLLKGLGVDLLWTLEKAQRWCEQPEWVHIDTTPFASLLKNLGTLFGLGLALNSSMYRESCKGKLSKWLPFRLSSIVASLVLLHVFDSLKPPSQVELVFYVLSFCKSAVVPLASVSVIPYCLAQVLGQPHKKSL
[2]
  T-cell proliferative response (in words): minimal response

B2: recombinant IGRP: recombinant islet glucose-6-phosphatase related protein generated as fusion protein with β-galactosidase in the pUEX vector (protein, UniProt Q9Z186 1-355, looked up)
Glucose-6-phosphatase 2: MDFLHRSGVLIIHHLQEDYRTYYGFLNFMSNVGDPRNIFSIYFPLWFQLNQNVGTKMIWVAVIGDWFNLIFKWILFGHRPYWWIQETEIYPNHSSPCLEQFPTTCETGPGSPSGHAMGSSCVWYVMVTAALSYTISRMEESSVTLHRLTWSFLWSVFWLIQISVCISRVFIATHFPHQVILGVIGGMLVAEAFEHTPGVHMASLSVYLKTNVFLFLFALGFYLLLRLFGIDLLWSVPIAKKWCANPDWIHIDSTPFAGLVRNLGVLFGLGFAINSEMFLRSCQGENGTKPSFRLLCALTSLTTMQLYRFIKIPTHAEPLFYLLSFCKSASIPLMVVALIPYCVHMLMRPGDKKTK
[2]; recombinant IGRP 3-100 μg/ml, β-galactosidase fusion protein, 3 days culture, 16 h 3H thymidine pulse
  T-cell proliferative response, SImax: 10

B3: UGRP: equivalent construct with ubiquitously expressed G6Pase related protein (protein, UniProt Q6NSQ9 1-346, looked up)
Glucose-6-phosphatase 3: MESTLSAGIIMAEALQNRLPGLENMWLWVTFLGDPKNLFQFCFPAAYYASRRLGISVLWITFIAEWLNLVFKWFLFGDRPFWWVHESGYSTQTPIQIHQFPSSCETGPGSPSGHCMITGAALWPVMTAISSQVASRSRSPWVRVIPGLAYCTFLLAVGLSRVFLLAHFPHQVLGGLIVGAALGWLMSPRVPMERELSFYGLTALALMLGASLMYWTLFTLGLDLSWSINLASKWCERPEWVHMDSRPFASLSRDSGSALGLGIALHTPCYAQIRRAHLGNGQKIACFVLAMGLLVFLEWLGYPPQISLFYIFNFLKYTLWPCLVLALVPWVVHTLSDQEAPPIRSS
[2]
  T-cell proliferative response (in words): minimal response
